Legend:
human CYP11B1 = human CYP11B1 (Homo sapiens (Human), UniProt P15538); experiment: G-402 cellular enzyme assay, human CYP11B1 (cortisol release); format: cell-based; details: G-402 cells expressing human CYP11B1; 1 μM Deoxycortisol; cortisol in supernatant after 16 h
Description: (§1) Herein we identified the use of the G-402 cell line as a host cell to ectopically express (transiently or stably) enzymes of the CYP11 family. Specifically we developed stable G-402 cells expressing ectopically human CYP11B1, human CYP11B2, human CYP11A1, cynmolgus CYP11B1 or cynomolgus CYP11B2 enzyme activity. Importantly the identified cell line G-402 expresses co-factors (adrenodoxin and adrenodoxin reductase) important for the activity of the CYP11 family and no relevant enzyme activity of the CYP11 family (in comparison to H295R cells) was detected in these cells. Therefore the G-402 cell line is uniquely suited as a host cell for the ectopic expression of enzymes from the CYP11 family.
(§2) G-402 cells can be obtained from ATCC (CRL-1440) and were originally derived from a renal leiomyoblastoma.
(§3) The expression plasmids contains the ORF for either human/cyno CYP11B1 or CYP11B2 under the control of a suitable promoter (CMV-promoter) and a suitable resistance marker (neomycin). Using standard techniques the expression plasmid is transfected into G-402 cells and these cells are then selected for expressing the given resistance markers. Individual cell-clones are then selected and assessed for displaying the desired enzymatic activity using 11-Deoxycorticosterone (Cyp11B2) or 11-Deoxycortisol (Cyp11B1) as a substrate.
(§4) G-402 cells expressing CYP11 constructs were established as described above and maintained in McCoy's 5a Medium Modified, ATCC Catalog No. 30-2007 containing 10% FCS and 400 μg/ml G418 (Geneticin) at 37° C. under an atmosphere of 5% CO2/95% air. Cellular enzyme assays were performed in DMEM/F12 medium containing 2.5% charcoal treated FCS and appropriate concentration of substrate (0.3-10 uM 11-Deoxycorticosterone, 11-Deoxycortisol or Corticosterone). For assaying enzymatic activity, cells were plated onto 96 well plates and incubated for 16 h. An aliquot of the supernatant is then transferred and analyzed for the concentration of the expected product (Aldosterone for CYP11B2; Cortisol for CYP11B1). The concentrations of these steroids can be determined using HTRF assays from CisBio analyzing either Aldosterone or Cortisol.
(§5) Inhibition of the release of produced steroids can be used as a measure of the respective enzyme inhibition by test compounds added during the cellular enzyme assay. The dose dependent inhibition of enzymatic activity by a compound is calculated by means of plotting added inhibitor concentrations (x-axes) vs. measured steroid/product level (y-axes). The inhibition is then calculated by fitting the following 4-parameter sigmoidal function (Morgan-Mercer-Flodin (MMF) model) to the raw data points using the least squares method:
(§6) [formula] wherein, A is the maximum y value, B is the EC50 factor determined using XLFit, C is the minimum y value and D is the slope value.
(§7) EC50 values for compounds claimed herein were tested with the G402-based assay system described. Cyp11B2 enzyme activity was tested in presence of 1 μM Deoxycorticosterone and variable amounts of inhibitors; Cyp11B1 enzyme activity was tested in presence of 1 μM Deoxycortisol and variable amounts of inhibitors.

human CYP11B2 = human CYP11B2 (Homo sapiens (Human), UniProt P19099); experiment: G-402 cellular enzyme assay, human CYP11B2 (aldosterone release); format: cell-based; details: G-402 cells expressing human CYP11B2; 1 μM Deoxycorticosterone; aldosterone in supernatant after 16 h
Chain of human CYP11B2 (P19099 25-503): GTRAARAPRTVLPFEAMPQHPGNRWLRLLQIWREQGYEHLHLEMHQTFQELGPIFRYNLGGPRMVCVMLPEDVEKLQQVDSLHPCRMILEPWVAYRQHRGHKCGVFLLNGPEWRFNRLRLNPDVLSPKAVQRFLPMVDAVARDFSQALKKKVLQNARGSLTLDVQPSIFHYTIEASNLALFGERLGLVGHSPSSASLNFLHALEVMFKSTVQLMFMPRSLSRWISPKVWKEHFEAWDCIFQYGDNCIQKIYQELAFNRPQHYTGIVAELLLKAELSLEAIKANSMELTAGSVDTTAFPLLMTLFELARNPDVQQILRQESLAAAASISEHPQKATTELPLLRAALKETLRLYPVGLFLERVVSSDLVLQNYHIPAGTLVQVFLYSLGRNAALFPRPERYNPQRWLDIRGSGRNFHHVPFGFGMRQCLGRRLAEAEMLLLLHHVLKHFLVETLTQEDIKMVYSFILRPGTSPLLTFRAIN
Description: as §1, §2, §3, §4, §5, §6, §7

Chain of human CYP11B1 (P15538 25-503): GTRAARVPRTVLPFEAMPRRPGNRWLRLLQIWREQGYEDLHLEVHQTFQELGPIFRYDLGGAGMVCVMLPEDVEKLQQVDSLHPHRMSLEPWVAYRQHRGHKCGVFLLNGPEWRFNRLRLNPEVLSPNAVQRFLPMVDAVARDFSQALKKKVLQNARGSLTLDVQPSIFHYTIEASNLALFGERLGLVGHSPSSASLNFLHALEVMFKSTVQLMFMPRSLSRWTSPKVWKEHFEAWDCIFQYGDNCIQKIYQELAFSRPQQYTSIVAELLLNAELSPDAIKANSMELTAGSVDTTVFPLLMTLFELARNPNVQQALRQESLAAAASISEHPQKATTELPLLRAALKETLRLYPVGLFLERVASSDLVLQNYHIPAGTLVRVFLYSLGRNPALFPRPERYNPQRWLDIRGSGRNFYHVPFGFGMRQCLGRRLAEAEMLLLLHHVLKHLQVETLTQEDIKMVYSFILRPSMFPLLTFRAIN

Compound | EC50 (human CYP11B1) [pM] | EC50 (human CYP11B2) [pM]
COc1ccncc1C(=O)N1CC2(C1)CN(c1cncc(N3C(=O)c4ccc(Cl)cc4C3(C)C)c1)C2 [Example 24, 5-Chloro-2-[5-[2-(4-methoxypyridine-3-carbonyl)-2,6-diazaspiro[3.3]heptan-6-yl]-3-pyridyl]-3,3-dimethyl-isoindolin-1-one] | 17200 | 44.9
COc1ccc2c(n1)C(C)(C)N(c1cncc(N3CC4(CN(C(=O)c5cnn(C)c5)C4)C3)c1)C2=O [Example 15, 2-Methoxy-7,7-dimethyl-6-[5-[2-(1-methylpyrazole-4-carbonyl)-2,6-diazaspiro[3.3]heptan-6-yl]-3-pyridyl]pyrrolo[3,4-b]pyridin-5-one] | 18900 | 20.5
CC(C)n1cc(C(=O)N2CC3(C2)CN(c2cncc(N4C(=O)c5ccc(Cl)cc5C4(C)C)c2)C3)cn1 [Example 3, 5-Chloro-2-[5-[2-(1-isopropylpyrazole-4-carbonyl)-2,6-diazaspiro[3.3]heptan-6-yl]-3-pyridyl]-3,3-dimethyl-isoindolin-1-one] | 11100 | 8.3
Cc1ccncc1C(=O)N1CCC2(CC1)CN(c1cncc(N3C(=O)c4ccc(Cl)cc4C3(C)C)c1)C2 [Example 57, 5-Chloro-3,3-dimethyl-2-[5-[7-(4-methylpyridine-3-carbonyl)-2,7-diazaspiro[3.5]nonan-2-yl]-3-pyridyl]isoindolin-1-one] | 9720 | 49
CC1(C)c2cc(Cl)ccc2C(=O)N1c1cncc(N2CC3(CN(C(=O)c4ncccc4C#N)C3)C2)c1 [Example 46, 2-[6-[5-(6-Chloro-1,1-dimethyl-3-oxo-isoindolin-2-yl)-3-pyridyl]-2,6-diazaspiro[3.3]heptane-2-carbonyl]pyridine-3-carbonitrile] | 3860 | 38.3
Cn1cc(C(=O)N2CC3(C2)CN(c2cncc(N4CCc5cc(Cl)ccc5C4=O)c2)C3)cn1 [Example 53, 6-Chloro-2-[5-[2-(1-methylpyrazole-4-carbonyl)-2,6-diazaspiro[3.3]heptan-6-yl]-3-pyridyl]-3,4-dihydroisoquinolin-1-one] | 14600 | 45.9
Cc1cc(C(=O)N2CC3(C2)CN(c2cncc(N4C(=O)c5ccc(Cl)cc5C4(C)C)c2)C3)n(C)n1 [Example 31, 5-Chloro-2-[5-[2-(2,5-dimethylpyrazole-3-carbonyl)-2,6-diazaspiro[3.3]heptan-6-yl]-3-pyridyl]-3,3-dimethyl-isoindolin-1-one] | 6430 | 154
Cn1cc(C(=O)N2CC3(C2)CN(c2cncc(N4C(=O)c5ccc(Cl)cc5C4(C)C)c2)C3)cn1 [Example 1, 5-Chloro-3,3-dimethyl-2-[5-[2-(1-methylpyrazole-4-carbonyl)-2,6-diazaspiro[3.3]-heptan-6-yl]-3-pyridyl]isoindolin-1-one] | 11300 | 2
Cn1nccc1C(=O)N1CC2(C1)CN(c1cncc(N3C(=O)c4ccc(Cl)cc4C34CC4)c1)C2 [Example 21, 5′-Chloro-2′-[5-[2-(2-methylpyrazole-3-carbonyl)-2,6-diazaspiro[3.3]heptan-6-yl]-3-pyridyl]spiro[cyclopropane-1,3′-isoindoline]-1′-one] | > 30000 | 294
CC1c2cc(Cl)ccc2C(=O)N1c1cncc(N2CC3(CN(C(=O)c4cnn(C)c4)C3)C2)c1 (stereo not shown) [Example 18, 5-Chloro-3-methyl-2-[5-[2-(1-methylpyrazole-4-carbonyl)-2,6-diazaspiro[3.3]heptan-6-yl]-3-pyridyl]isoindolin-1-one] | 16700 | 7.8
Cn1ccnc1C(=O)N1CC2(C1)CN(c1cncc(N3C(=O)c4ccc(C#N)cc4C3(C)C)c1)C2 [Example 11, 3,3-Dimethyl-2-[5-[2-(1-methylimidazole-2-carbonyl)-2,6-diazaspiro[3.3]heptan-6-yl]-3-pyridyl]-1-oxo-isoindoline-5-carbonitrile] | 4760 | 25.2
Cn1cc(C(=O)N2CC3(C2)CN(c2cncc(N4C(=O)c5ccc(C#N)cc5C4(C)C)c2)C3)cn1 [Example 8, 3,3-Dimethyl-2-[5-[2-(1-methylpyrazole-4-carbonyl)-2,6-diazaspiro[3.3]heptan-6-yl]-3-pyridyl]-1-oxo-isoindoline-5-carbonitrile] | > 30000 | 112
Cc1ccncc1C(=O)N1CC2(C1)CN(c1cncc(N3C(=O)c4ccc(Cl)cc4C34CC4)c1)C2 [Example 20, 5′-Chloro-2′-[5-[2-(4-methylpyridine-3-carbonyl)-2,6-diazaspiro[3.3]heptan-6-yl]-3-pyridyl]spiro[cyclopropane-1,3′-isoindoline]-1′-one] | 20000 | 19.5
Cc1ncncc1C(=O)N1CC2(C1)CN(c1cncc(N3C(=O)c4ccc(Cl)cc4C3(C)C)c1)C2 [Example 29, 5-Chloro-3,3-dimethyl-2-[5-[2-(4-methylpyrimidine-5-carbonyl)-2,6-diazaspiro[3.3]heptan-6-yl]-3-pyridyl]isoindolin-1-one] | > 30000 | 74.8
Cc1oncc1C(=O)N1CC2(C1)CN(c1cncc(N3C(=O)c4ccc(Cl)cc4C3(C)C)c1)C2 [Example 39, 5-Chloro-3,3-dimethyl-2-[5-[2-(5-methylisoxazole-4-carbonyl)-2,6-diazaspiro[3.3]heptan-6-yl]-3-pyridyl]isoindolin-1-one] | 9680 | 28.2
Cc1nocc1C(=O)N1CC2(C1)CN(c1cncc(N3C(=O)c4ccc(Cl)cc4C3(C)C)c1)C2 [Example 27, 5-Chloro-3,3-dimethyl-2-[5-[2-(3-methylisoxazole-4-carbonyl)-2,6-diazaspiro[3.3]heptan-6-yl]-3-pyridyl]isoindolin-1-one] | 14000 | 104
Cn1nccc1C(=O)N1CC2(C1)CN(c1cncc(N3C(=O)c4ccc(Cl)cc4C3(C)C)c1)C2 [Example 5, 5-Chloro-3,3-dimethyl-2-[5-[2-(2-methylpyrazole-3-carbonyl)-2,6-diazaspiro[3.3]heptan-6-yl]-3-pyridyl]isoindolin-1-one] | 15700 | 145
Cc1cnc(C(=O)N2CC3(C2)CN(c2cncc(N4C(=O)c5ccc(Cl)cc5C4(C)C)c2)C3)nc1 [Example 34, 5-Chloro-3,3-dimethyl-2-[5-[2-(5-methylpyrimidine-2-carbonyl)-2,6-diazaspiro[3.3]heptan-6-yl]-3-pyridyl]isoindolin-1-one] | 9550 | 97
Cn1cncc1C(=O)N1CC2(C1)CN(c1cncc(N3C(=O)c4ccc(Cl)cc4C3(C)C)c1)C2 [Example 6, 5-Chloro-3,3-dimethyl-2-[5-[2-(3-methylimidazole-4-carbonyl)-2,6-diazaspiro[3.3]heptan-6-yl]-3-pyridyl]isoindolin-1-one] | 7940 | 11.7
Cc1c(C(=O)N2CC3(C2)CN(c2cncc(N4C(=O)c5ccc(Cl)cc5C4(C)C)c2)C3)cnn1C [Example 26, 5-Chloro-2-[5-[2-(1,5-dimethylpyrazole-4-carbonyl)-2,6-diazaspiro[3.3]heptan-6-yl]-3-pyridyl]-3,3-dimethyl-isoindolin-1-one] | 35500 | 77.5
CC1(C)c2cc(Cl)ccc2C(=O)N1c1cncc(N2CC3(CN(C(=O)c4cncc(C#N)c4)C3)C2)c1 [Example 36, 5-[6-[5-(6-Chloro-1,1-dimethyl-3-oxo-isoindolin-2-yl)-3-pyridyl]-2,6-diazaspiro[3.3]heptane-2-carbonyl]pyridine-3-carbonitrile] | 31000 | 45.7
CC1(C)c2cc(Cl)ccc2C(=O)N1c1cncc(N2CC3(CN(C(=O)c4cncnc4)C3)C2)c1 [Example 40, 5-Chloro-3,3-dimethyl-2-[5-[2-(pyrimidine-5-carbonyl)-2,6-diazaspiro[3.3]heptan-6-yl]-3-pyridyl]isoindolin-1-one] | 12000 | 54.2
Cc1ccncc1C(=O)N1CC2(C1)CN(c1cncc(N3C(=O)c4ccc(Cl)cc4C3(C)C)c1)C2 [Example 7, 5-Chloro-3,3-dimethyl-2-[5-[2-(4-methylpyridine-3-carbonyl)-2,6-diazaspiro[3.3]heptan-6-yl]-3-pyridyl]isoindolin-1-one] | 25700 | 13.8

— patent US10035804B2, “Spirodiamine derivatives as aldosterone synthase inhibitors” (Hoffmann-La Roche Inc., priority 2014, dated 2018)
